Experimental data published in patent publication US20100260675A1, “Oxytocin Receptor Antagonists and Their Use for the Treatment of Pulmonary Related Diseases” (priority 2004, published 2010).
Each block holds one molecule with its values, some of them ahead of it.

How the values were obtained:
[1] = target: T1, Oxytocin Receptor on human airway smooth muscle cells (HASMC) (Homo sapiens, UniProt P30559); assay: Calcium influx in human airway smooth muscle cells after addition of oxytocin; type: cell-based; settings: FIG. 4
T1 construct: the Oxytocin Receptor expressed on the surface of human airway smooth muscle cells is functional; endogenous in cells; host or cells: primary human airway smooth muscle cells (HASMC)
T1 sequence (P30559 1-389): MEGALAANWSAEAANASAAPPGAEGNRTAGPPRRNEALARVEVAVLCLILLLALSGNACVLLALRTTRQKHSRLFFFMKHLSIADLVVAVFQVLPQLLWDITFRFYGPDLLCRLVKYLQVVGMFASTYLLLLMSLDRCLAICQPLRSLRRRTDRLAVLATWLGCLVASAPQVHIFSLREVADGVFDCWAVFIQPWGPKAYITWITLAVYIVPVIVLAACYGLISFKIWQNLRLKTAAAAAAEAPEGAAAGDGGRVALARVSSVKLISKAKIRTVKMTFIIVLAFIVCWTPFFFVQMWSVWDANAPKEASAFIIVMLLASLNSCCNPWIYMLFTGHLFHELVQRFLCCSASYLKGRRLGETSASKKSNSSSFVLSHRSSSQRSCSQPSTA
Method: In order to determine whether the Oxytocin Receptor expressed on the surface of human airway smooth muscle cells is functional, the amount of influx of calcium was measured. HASMC were serum starved and then either unstimulated or stimulated with IL-13 (50 ng/ml) for 24 hours. The amount of calcium that mobilized Into the cells was measured after addition of oxytocin (100 nM or 500 nM).

[2] = system: Oxytocin Receptor (OXTR) mRNA in primary human airway smooth muscle cells; assay: Real Time PCR analysis of oxytocin receptor mRNA in cytokine-stimulated primary human airway smooth muscle cells; type: cell-based; settings: for level of OXTR mRNA normalized to 18S mRNA and relative to untreated control (0 hour timepoint): primary HASMC from normal donors, 50 ng/ml; for induced expression of the Oxytocin Receptor normalized to 18S and relative to untreated control (0 hour timepoint): primary HASMC from two normal donors, 10 ng/ml
Method: In order to confirm the microarray finding by an independent means, Real Time PCR technology was employed. Primary human airway smooth muscle cells from “normal” donors were cultured with IL-13 or a naturally occurring mutant form IL-13R130Q (associated with high serum IgE levels) for 0, 6 hours or 18 hours at 50 ng/ml after allowing the cell to rest for 24 hours. Total RNA was isolated, reverse transcribed and used in Real Time PCR analysis for oxytocin receptor using the Applied Biosystems Gene Expression Assay (ID number Hs00168573_m1) on the ABI PRISM® 7900HT Sequence Detection System. At 6 hours, the level of OXTR mRNA normalized to 18S mRNA and relative to untreated control (i.e., 0 hour time point) was 1.95 (Std Dev. 0.41) when cells were stimulated with WT IL-13 and 1.79 (Std Dev. 0.22) when stimulated with R130Q. At 18 hours, the level of OXTR mRNA normalized to 18S mRNA and relative to untreated control (i.e., 0 hour timepoint) was 2.02 (Std Dev. 0.42) when the cells were stimulated with WT IL-13 and 3.58 (Std Dev. 0.74) when stimulated with R130Q.
Primary human airway smooth muscle cells from two “normal” donors were cultured with tumor necrosis factor alpha (TNFα) for 0, 6 hours or 18 hours at 10 ng/ml after resting the cells for 24 hours. Total RNA was isolated, reverse transcribed and used in Real Time PCR analysis for the Oxytocin Receptor. TNFα induced the expression of the Oxytocin Receptor by 4.88 (Std Dev. 1.13) at 6 hours and 7.06 (Std. Dev. 1.42) at the 18-hour time point normalized to 18S and relative to untreated control (i.e., 0 hour timepoint).

[3] = system: Oxytocin Receptor mRNA in trachea; assay: Oxytocin Receptor RNA expression in trachea, in vivo model of acute asthma (Real Time PCR); settings: mice immunized i.p. day 1 and 8, challenged intranasally days 22-24, trachea day 25
Method: The RNA expression of Oxytocin Receptor in an in vivo model of acute asthma was tested. The mice were immunized with ovalbumin intraperitoneal on day 1 and day 8 and then challenged intranasally on days 22, 23 and 24. On day 25, the mice were euthanized. The trachea were extracted for RNA isolation and used in Real Time PCR analysis for Oxytocin Receptor.

effect on oxytocin-induced calcium influx in HASMC ([1]; IL-13 50 ng/ml for 24 hours, at low concentrations of oxytocin): further enhances calcium influx
Molecule: IL-13: wild-type interleukin 13, Th2 derived cytokine used to stimulate airway smooth muscle cells
level of OXTR mRNA normalized to 18S mRNA and relative to untreated control (0 hour timepoint) ([2]; 6 hours): 1.95 (Std Dev. 0.41)
level of OXTR mRNA normalized to 18S mRNA and relative to untreated control (0 hour timepoint) ([2]; 18 hours): 2.02 (Std Dev. 0.42)

Ca influx in human airway smooth muscle cells ([1]; serum-starved HASMC, oxytocin 100 nM or 500 nM): induces Ca influx
Molecule: CC[C@H](C)[C@@H]1NC(=O)[C@H](Cc2ccc(O)cc2)NC(=O)[C@@H](N)CSSC[C@@H](C(=O)N2CCC[C@H]2C(=O)N[C@@H](CC(C)C)C(=O)NCC(N)=O)NC(=O)[C@H](CC(N)=O)NC(=O)[C@H](CCC(N)=O)NC1=O [oxytocin]

Molecule: ovalbumin: allergen used to immunize and challenge mice in the acute asthma model
Oxytocin Receptor mRNA in trachea compared to PBS control [3]: 1.5 fold

Molecule: TNFα
induced expression of the Oxytocin Receptor normalized to 18S and relative to untreated control (0 hour timepoint) ([2]; 18-hour time point): 7.06 (Std. Dev. 1.42)
induced expression of the Oxytocin Receptor normalized to 18S and relative to untreated control (0 hour timepoint) ([2]; 6 hours): 4.88 (Std Dev. 1.13)
